Key:
[1] = 293.2 Kelvin; static electric fields or relatively low frequencies; cited from earlier work
[2] = freeze dried from aqueous solutions with pH moved below the isoelectric point; cited from earlier work
[3] = freshly excised rat gut sacs (small intestine) incubated in culture medium pH 7.4; conditions: 37° C, up to 2 h

In the case of `CO` [Methanol], the “Dielectricity constant, ε*” value [1] is given as 33.0.

In the case of “lysozyme: lysozyme lyophilized from aqueous solution, literature example (Klibanov et al)”, the “Solubility in 1,5 pentanediol” value [2] is listed as “markedly increased”.

In the case of Asp^B28 human insulin, the fragment found [3] is reported as “degradation product (peak ˜5218), 2 h”.
